Assay results taken from patent EP1056745B1, “6,9-DISUBSTITUTED 2- TRANS-(4- AMINOCYCLOHEXYL) AMINO]PURINES” (Aventis Pharmaceuticals Inc., priority 1998, dated 1999).

Legend:
[1] = tested on: PC-3 Human Prostate Tumor; experiment: Subrenal capsule assay, inhibition of PC-3 tumor growth; type: in vivo, Nude Mice; settings: for V/V0 (mean ± s.e.m.): 12 days, Experiment # 1; for %T/C: day 12, Experiment # 1
Experimental: Nude mice were housed in microisolator cages under positive air pressure. Surgical procedures and dosing were performed in a laminar flow cabinet. The subrenal capsule assay was performed as described in Bogden, A. E., Kelton, D. E., Cobb, W. R. and Esber, H. J. A rapid screening method for testing chemotherapeutic agents against human tumor xenografts. In: D. P. Houchens and A. A. Ovejera (eds.), Proceedings of the Symposium on the Use of Athymic (Nude) Mice in Cancer Research, pp 231-250. New York: Gustav Fischer New York, Inc. 1978. Briefly, tumors of 400-500 mm^3 obtained from maintenance mice were cut into 1 mm^3 pieces and the sizes checked using an ocular micrometer and a dissecting microscope. After exteriorization of the kidney, tumor pieces were implanted under the capsule of the kidneys of male nude mice (6-8 weeks of age) using a 13 Ga trochar. After implantation, the longest and shortest diameters of the tumor piece were measured using the ocular micrometer and a dissecting microscope. The kidney was placed back into the body cavity and the body wall incision closed with silk sutures and the skin incision closed with wound clips. Drug treatment was begun on the day following implantation and continued for 12 days at which time the kidneys were again exteriorized and tumor size measured as described above. Tumor volume was calculated by the formula, V = length x width^2/2 as described in Houchens, D. P., Ovejera, A. A., and Barker, A. D. The therapy of human tumors in athymic (nude) mice. In : D. P. Houchens and A. A. Ovejera (eds.), Proceedings of the Symposium on the Use of Athymic (Nude) Mice in Cancer Research, pp. 267-280. New York: Gustav Fischer New York, Inc., 1978.

[2] = tested on: CDK-cyclin protein kinases; settings: moderate inhibitory activity; cited from earlier work
[3] = tested on: rat sympathetic neurons; settings: camptothecin-treated; cited from earlier work
[4] = tested on: neuronal PC12 cells and sympathetic neurons; settings: two model systems of neuronal survival; cited from earlier work
[5] = tested on: neuronally differentiated PC12 cells; settings: cited from earlier work; for concentration of maximal protection from death: camptothecin-treated; for cell death: day 6, in the presence or absence of camptothecin, both or individual
[6] = tested on: cAMP- and cGMP-dependent kinases, and protein kinase C; settings: cited from earlier work
[7] = tested on: cortical neurons; settings: cited from earlier work; for IC50: protection against camptothecin-induced death
[8] = tested on: proliferating PC12 cells; settings: cited from earlier work
[9] = camptothecin-treated neuronal cells

| SMILES | V/V0 (mean ± s.e.m.) ([1]; 1 mg/kg i.p. daily) | %T/C ([1]; 1 mg/kg i.p. daily) [%] | V/V0 (mean ± s.e.m.) ([1]; 3 mg/kg i.p. daily) | %T/C ([1]; 3 mg/kg i.p. daily) [%] | IC50 [2] [µM] | concentration of maximal protection from death [3] [µM] | death of neuronal cells [4] | concentration of maximal protection from death [5] [µM] | cell death [5] | effect on other major protein kinases [6] | IC50 [7] [µM] | minimum concentration that fully inhibits DNA synthesis [8] [µM] | prevention of cell death [5, 9] | prevention of cell death [7, 9] |
| --- | --- | --- | --- | --- | --- | --- | --- | --- | --- | --- | --- | --- | --- | --- |
| Cl.Cl.N[C@H]1CC[C@H](Nc2nc(NCc3cccc(I)c3)c3ncn(C4CCCC4)c3n2)CC1 [Example 1, 2-[Trans-(4-aminocyclohexyl)amino]-6-(3-iodobenzylamino)-9-cyclopentylpurine dihydrochloride] | 4.8 ± 3.1 | 109 | 2.0 ± 1.0 | 44 | – | – | – | – | – | – | – | – | – | – |
| Cn1cnc2c(NCc3ccccc3)nc(NCCO)nc21 [Olomoucine, 6-(benzylamino)-2-[(2-hydroxyethyl)amino]-9-methylpurine] | – | – | – | – | ~7 | 200 | suppress the death | 200 | approximately 30% | no effect | 100 | 200 | – | – |
| CN1CC[C@H](c2c(O)cc(O)c3c(=O)cc(-c4ccccc4Cl)oc23)[C@H](O)C1 [flavopiridol] | – | – | – | – | – | 1 | suppress the death | 1 | approximately 30% | – | 0.1 | 1 | – | – |
| Cn1cnc2nc(NCCO)nc(NCc3ccccc3)c21 [iso-olomoucine] | – | – | – | – | – | – | – | – | – | – | – | – | failed to prevent the cell death | failed to prevent the cell death |
